Reference: patent US12421221B2 (ONCOBIX CO., LTD., priority 2019, dated 2025)

What was measured:
ALK (L1196M) = ALK (L1196M) (Homo sapiens, UniProt Q9UM73, L1196M); assay: Kinase inhibitory activity (33P-ATP filter-binding, scintillation counting); type: biochemical
Procedure: (§1) The measurement of the kinase inhibitory activity was performed in the following method.
(§2) 2. An evaluation compound (DMSO solution) and Mg/ATP were added to perform the reaction.
(§3) 3. After about 40 minutes at room temperature, 10 μL of 0.5% phosphoric acid was added to complete the reaction.
(§4) 4. The reaction solution was divided by 0.5% 10 μL and spotted on a P30 filtermat.
(§5) 5. […] The reaction solution was washed once with methanol and then dried and analyzed with scintillation counting to measure IC50 values.

EGFR (del19/L858R/T790M) = EGFR (del19/L858R/T790M) (Homo sapiens, UniProt P00533, T790M, form not given); assay: as above; type: biochemical
Procedure: as §1, §2, §3, §4, §5

EGFR (del19/T790M/C797S) = EGFR (del19/T790M/C797S) (Homo sapiens, UniProt P00533, C797S/DEL746-750/T790M); assay: as above; type: biochemical
Procedure: as §1, §2, §3, §4, §5

H2228 (EML4-ALK v3) = assay: Cancer cell growth inhibitory effect (MTT assay); type: cell-based; details: Homo sapiens, NCI-H2228, 72 hours, read-out: H2228 cell growth inhibition IC50
Procedure: (§6) With respect to the compounds obtained in Examples, a growth inhibitory effect of ALK mutation cancer cells and EGFR mutation Ba/F3 cancer cell lines was measured. The anti-cancer efficacy activity measurement was performed by the following method using an ALK mutation cell line such as H3122 (EML4-ALK v1), H2228 (EML4-ALK v3), etc. and an EGFR mutation Ba/F3 stable cell line.
(§7) 2×10^5 cells were seeded on a 96-well plate. After 24 hours, each of the drugs was treated in a dose dependent manner, and incubated after 72 hours, a 15 μL MTT reagent reacted for 4 hours, and then 100 μL 10% SDS was added and incubated for 24 hours. […] MTT result analysis measured the IC50 values through prism software.

H3122 (EML4-ALK v1) = assay: Cancer cell growth inhibitory effect (MTT assay); type: cell-based; details: Homo sapiens, NCI-H3122, 72 hours, read-out: H3122 cell growth inhibition IC50
Procedure: as §6, §7

[1] = molecular target: T1, EGFR mutation Ba/F3 stable cell line DEL19/T790M/C797S (Homo sapiens, UniProt P00533, DEL746-750/T790M/C797S, cells depend on it); assay: Cancer cell growth inhibitory effect (MTT assay); type: cell-based, Murine; details: 72 hours, read-out: DEL19/T790M/C797S cell growth inhibition IC50
T1 construct: "del19, #32062; del19+T790M, #32072)
Procedure: as §6
Ba/F3 stable cell line construction: Murine lymphoid cells performed IL-3 dependent growth. […] A stable cell line was constructed using this principle even without puromycin selection. Briefly, each construction was infected on Ba/F3, and after 48 hours, IL-3 was removed by media exchange and cells were cultured. However, in the case of the wild type EGFR, puromycin selection was performed.
as §7

SMILES	IC50 (ALK (L1196M))	IC50 (EGFR (del19/L858R/T790M))	IC50 (EGFR (del19/T790M/C797S))	IC50 (H2228 (EML4-ALK v3))	IC50 (H3122 (EML4-ALK v1))	IC50 [1]
COc1cc(N2CCSCC2)c(-c2cnn(C)c2)cc1Nc1ncc(Cl)c(Nc2ccccc2NS(C)(=O)=O)n1 [Example 7, N-(2-((5-chloro-2-((2-methoxy-5-(1-methyl-1H-pyrazol-4-yl)-4-thiomorpholinophenyl)amino)pyrimidine-4-yl)amino)phenyl)methanesulfonamide]	< 50 nM	< 50 nM	< 50 nM	< 100 nM	50 to 100 nM	< 100 nM
COc1cc(N2CCN(C)CC2)c(-c2cnn(C)c2)cc1Nc1ncc(Cl)c(Nc2ccccc2NS(C)(=O)=O)n1 [Example 8, N-(2-((5-chloro-2-((2-methoxy-5-(1-methyl-1H-pyrazol-4-yl)-4-(4-methylpiperazine-1-yl)phenyl)amino)pyrimidine-4-yl)amino)phenyl)methanesulfonamide]	< 50 nM	50 to 100 nM	50 to 100 nM	> 500 nM	> 500 nM	50 to 100 nM
COc1cc(N2CC3(COC3)C2)c(-c2cnn(C)c2)cc1Nc1ncc(Cl)c(Nc2ccccc2NS(C)(=O)=O)n1 [Example 9, N-(2-((5-chloro-2-((2-methoxy-5-(1-methyl-1H-pyrazol-4-yl)-4-(2-oxa-6-azaspiro[3.3]heptane-6-yl)phenyl)amino)pyrimidine-4-yl)amino)phenyl)methanesulfonamide]	< 50 nM	< 50 nM	< 50 nM	50 to 100 nM	50 to 100 nM	< 100 nM
COc1cc(N2CC3(CN(C)C3)C2)c(-c2cnn(C)c2)cc1Nc1ncc(Cl)c(Nc2ccccc2NS(C)(=O)=O)n1 [Example 10, N-(2-((5-chloro-2-((2-methoxy-5-(1-methyl-1H-pyrazol-4-yl)-4-(6-methyl-2,6-diazaspiro[3.3]heptane-2-yl)phenyl)amino)pyrimidine-4-yl)amino)phenyl)methanesulfonamide]	< 50 nM	50 to 100 nM	50 to 100 nM	> 500 nM	> 500 nM	50 to 100 nM
C=CC(=O)Nc1cc(Nc2nccc(-c3cn(C)c4ccccc34)n2)c(OC)cc1N(C)CCN(C)C [Osimertinib, osimertinib, reference compound]	50 to 100 nM	–	–	> 500 nM	> 500 nM	–

Now from value to compound:

IC50 (ALK (L1196M))	IC50 (EGFR (del19/L858R/T790M))	IC50 (EGFR (del19/T790M/C797S))	IC50 (H2228 (EML4-ALK v3))	IC50 (H3122 (EML4-ALK v1))	IC50 [1]	SMILES
< 50 nM	< 50 nM	< 50 nM	< 100 nM	50 to 100 nM	< 100 nM	COc1cc(N2CCOCC2)c(-c2cnn(C)c2)cc1Nc1ncc(Cl)c(Nc2ccccc2N(C)S(C)(=O)=O)n1 [Example 1, N-(2-((5-chloro-2-((2-methoxy-5-(1-methyl-1H-pyrazol-4-yl)-4-morpholinophenyl)amino)pyrimidine-4-yl)amino)phenyl)-N-methylmethanesulfonamide]
< 50 nM	–	–	< 100 nM	50 to 100 nM	–	COc1cc(N2CCOCC2)c(-c2cnn(C)c2)cc1Nc1ncc(Cl)c(Nc2ccccc2NS(C)(=O)=O)n1 [Example 2, N-(2-((5-chloro-2-((2-methoxy-5-(1-methyl-1H-pyrazol-4-yl)-4-morpholinophenyl)amino)pyrimidine-4-yl)amino)phenyl)methanesulfonamide]
< 50 nM	< 50 nM	< 50 nM	< 100 nM	50 to 100 nM	< 100 nM	COc1cc(N2CCSCC2)c(-c2cnn(C)c2)cc1Nc1ncc(Cl)c(Nc2ccccc2N(C)S(C)(=O)=O)n1 [Example 3]
< 50 nM	< 50 nM	50 to 100 nM	50 to 100 nM	50 to 100 nM	50 to 100 nM	COc1cc(N2CCN(C)CC2)c(-c2cnn(C)c2)cc1Nc1ncc(Cl)c(Nc2ccccc2N(C)S(C)(=O)=O)n1 [Example 4]
< 50 nM	< 50 nM	< 50 nM	< 100 nM	50 to 100 nM	< 100 nM	COc1cc(N2CC3(COC3)C2)c(-c2cnn(C)c2)cc1Nc1ncc(Cl)c(Nc2ccccc2N(C)S(C)(=O)=O)n1 [Example 5, N-(2-((5-chloro-2-((2-methoxy-5-(1-methyl-1H-pyrazol-4-yl)-4-(2-oxa-6-azaspiro[3.3]heptane-6-yl)phenyl)amino)pyrimidine-4-yl)amino)phenyl)-N-methylmethanesulfonamide]
< 50 nM	< 50 nM	50 to 100 nM	50 to 100 nM	50 to 100 nM	50 to 100 nM	COc1cc(N2CC3(CN(C)C3)C2)c(-c2cnn(C)c2)cc1Nc1ncc(Cl)c(Nc2ccccc2N(C)S(C)(=O)=O)n1 [Example 6, N-(2-((5-chloro-2-((2-methoxy-5-(1-methyl-1H-pyrazol-4-yl)-4-(6-methyl-2,6-diazaspiro[3.3]heptane-2-yl)phenyl)amino)pyrimidine-4-yl)amino)phenyl)-N-methylmethanesulfonamide]
